Results on six molecules are retold here after patent publication US9101133B2, “Phenyl-substituted bicyclooctane-1,3-dione-derivatives” (BAYER INTELLECTUAL PROPERTY GMBH, priority 2010, dated 2015).

Series [1] concerns AVEFA. Kind of series: Herbicidal post-emergence action. The class given is in vivo. Conditions: 80 g/ha, visual assessment after about three weeks, 100% = plants have died. How it is done:
(§1) 2. Herbicidal Post-Emergence Action
(§2) • Seeds of monocotylidonous and dicotylidonous weed and crop plants are placed in sandy loam in wood fibre pots, covered with soil and cultivated in a greenhouse under good growth conditions. Two to three weeks after sowing, the test plants are treated at the one-leaf stage. The test compounds, formulated as wettable powders (WP), are then with a water application rate of 600 l/ha (converted), with 0.2% of wetting agent added, sprayed onto the green parts of the plants in different amounts. After the test plants have been kept in the greenhouse under optimum growth conditions for about three weeks, the effect of the preparations is assessed visually in comparison to untreated controls (herbicidal effect in percent: 100% effect=the plants have died, 0% effect=like control plants). Post-Emergence, 80 g/ha

In series [2] the test system is LOLMU. Kind of series: Herbicidal post-emergence action. The class given is in vivo. Conditions: 80 g/ha, visual assessment after about three weeks, 100% = plants have died. Here is the method: as §1, §2
For series [3], the system named is ALOMY. Kind of series: Herbicidal post-emergence action. The format is in vivo. Conditions: 80 g/ha, visual assessment after about three weeks, 100% = plants have died. How it is done: as §1, §2
The subject of series [4] is SETVI. Description: Herbicidal post-emergence action. The format is in vivo. Conditions: visual assessment after about three weeks, 100% = plants have died; for herbicidal effect in percent, SETVI: 80 g/ha. How it is done:
as §1, §2

Series [5] deals with ECHCG. Kind of series: Herbicidal post-emergence action. The class given is in vivo. Conditions: 80 g/ha, visual assessment after about three weeks, 100% = plants have died. Here is the method: as §1, §2
The test system of series [6] is VERPE. Kind of series: Herbicidal post-emergence action. The class given is in vivo. Conditions: 80 g/ha, visual assessment after about three weeks, 100% = plants have died. How it is done:
as §1, §2

Series [7] concerns green peach aphid (Myzus persicae). Kind of series: Myzus test (MYZUPE spray treatment). The class given is in vivo. Conditions: application rate of 500 g/ha; Chinese cabbage leaf discs sprayed; after 6 days. Here is the method: Solvents: 78 parts by weight of acetone
• 1.5 parts by weight of dimethylformamide Emulsifier: 0.5 part by weight of alkylaryl polyglycol ether
To produce a suitable preparation of active compound, one part by weight of active compound is mixed with the stated amounts of solvents and emulsifier, and the concentrate is diluted with emulsifier-containing water to the desired concentration.
Discs of Chinese cabbage leaves (Brassica pekinensis) which are infested by all stages of the green peach aphid (Myzus persicae) are sprayed with an active compound preparation of the desired concentration.
After 6 days, the effect in % is determined 100% means that all aphids have been killed; 0% means that none of the aphids have been killed.

The test system of series [8] is POLCO. Kind of series: Herbicidal post-emergence action. The class given is in vivo. Conditions: 80 g/ha, visual assessment after about three weeks, 100% = plants have died. How it is done: as §1, §2
In series [9] the test system is AVEFA. Kind of series: Herbicidal post-emergence action. The format is in vivo. Conditions: 100 g/ha, visual assessment after about three weeks, 100% = plants have died.
Series [10] relates to APESV. Kind of series: Herbicidal post-emergence action. The format is in vivo. Conditions: 100 g/ha, visual assessment after about three weeks, 100% = plants have died. How it is done:
as §1
as §2, with “Post-Emergence, 80 g/ha” left out

The test system of series [11] is POAAN. Description: Herbicidal post-emergence action. Conditions: 100 g/ha, visual assessment after about three weeks, 100% = plants have died. The class given is in vivo. Here is the method: as §1
as §2, with “Post-Emergence, 80 g/ha” left out

The subject of series [12] is PHAMI. Description: Herbicidal post-emergence action. The class given is in vivo. Conditions: 100 g/ha, visual assessment after about three weeks, 100% = plants have died. How it is done: as §1
as §2, with “Post-Emergence, 80 g/ha” left out

For series [13], the system named is SETVI. Description: Herbicidal post-emergence action. The class given is in vivo. Conditions: 504 h, visual assessment after about three weeks, 100% = plants have died, read-out: herbicidal effect in percent, SETVI.

Usually melting point stands for the temperature, or range, at which the solid turns liquid.

In the case of `CCc1cc(C)cc(CC)c1C1C(=O)C2CC(CCC#N)CC2C1=O` (mixture of isomers) [I-a-37], the “herbicidal effect in percent, AVEFA” value in series [1] is reported as 100%. For the same molecule, in series [2], the “herbicidal effect in percent, LOLMU” value is 100%. Further, in series [3], the “herbicidal effect in percent, ALOMY” value worked out at 100%. Moreover, the “herbicidal effect in percent, SETVI” value in [4] worked out at 100%. In series [5], the “herbicidal effect in percent, ECHCG” value stood at 100%. The “herbicidal effect in percent, VERPE” value in series [6] is listed as 80%.

With `CCc1cc(C)cc(CC)c1C1=C(OCc2ccccc2)C2CC(C=CC#N)CC2C1=O` (mixture of isomers) [I-a-59], the “effect in % (aphids killed)” value in series [7] stood at 100%.

For `CCOC(=O)OC1=C(c2c(CC)cc(C)cc2CC)C(=O)C2CC(C=CC#N)CC12` (mixture of isomers) [I-c-22], the “effect in % (aphids killed)” value in series [7] was 100%. The “herbicidal effect in percent, AVEFA” value in series [1] was 100%. In series [3], the “herbicidal effect in percent, ALOMY” value is 80%. Besides, in [4], the “herbicidal effect in percent, SETVI” value turned out to be 100%. In addition, in [5], the “herbicidal effect in percent, ECHCG” value is given as 100%. In addition, in series [6], the “herbicidal effect in percent, VERPE” value was 90%.

Turning to `C=C1CC2C(=O)C(c3c(CC)cc(C)cc3CC)=C(OCc3ccccc3)C2C1` (stereo not drawn) [I-a-0, 3-(Benzyloxy)-2-(2,6-diethyl-4-methylphenyl)-5-methylene-4,5,6,6a-tetrahydropentalen-1(3aH)-one], the melting point is 87 to 88 °C.

With `CCc1cc(C)cc(CC)c1C1C(=O)C2CC(COCOC)CC2C1=O` (stereo not drawn) [I-a-40, 2-(2,6-diethyl-4-methylphenyl)-5-methoxymethoxymethyltetrahydropentalene-1,3-dione], the “herbicidal effect in percent, AVEFA” value in series [1] was 90%. In addition, in series [2], the “herbicidal effect in percent, LOLMU” value was found to be 100%. The “herbicidal effect in percent, ALOMY” value in series [3] turned out to be 100%. For the same molecule, the pest or weed control at 80 g/ha in series [4] (504 h, read-out: herbicidal effect in percent, SETVI) came out at 90%. Also, the “herbicidal effect in percent, POLCO” value in [8] amounted to 100%.

Consider `CCOC(=O)OC1=C(c2c(CC)cc(C)cc2CC)C(=O)C2CC(C(OC)OC)CC12` (stereo not drawn) [I-c-1, 2-(2,6-Diethyl-4-methylphenyl)-5-(dimethoxymethyl)-3-oxo-3,3a,4,5,6,6a-hexahydropentalen-1-yl ethyl carbonate], for which the “herbicidal effect in percent, AVEFA” value in series [9] came to 80%. In series [10], the “herbicidal effect in percent, APESV” value came out at 100%. In addition, the “herbicidal effect in percent, POAAN” value in series [11] came to 85%. For the same molecule, the “herbicidal effect in percent, PHAMI” value in [12] was 99%. Besides, the pest or weed control at 100 g/ha in series [13] was determined as 97%.
